What was measured:
5-HT6 receptor [1] = biological target: T1, 5-HT6 receptor (Homo sapiens (Human), UniProt P50406); assay: Functional assay: inhibition of serotonin-induced intracellular cAMP in HEK 293 cells expressing 5-HT6 receptor (LANCE cAMP); type: cell-based; details: for inhibition at 10 µM: HEK293, read-out: % inhibition of 5-HT6 receptors, 10 μM solutions of compounds; for IC50: HEK 293 cells expressing 5-HT6 receptor, read-out: IC50 inhibition of serotonin 5-HT6 receptors in the setting of functional assay (serotonin-stimulated intracellular cAMP production)
Protocol: Determination of antagonistic activity of compounds of general formula 1 towards 5-HT6 receptors. Compounds of general formula 1 were tested for their ability to prevent 5-HT6 receptor activation by serotonin. HEK 293 cells (cells of human embryo's kidney) with artificially expressed 5-HT6 receptor, activation of which by serotonin leads to increasing the concentration of intracellular cAMP were used. The content of intracellular cAMP was determined using reagent kit LANCE cAMP (PerkinElmer) according to the method described by the manufacturer of the kit [http://las.perkinelmer.com/content/Manuals/MAN_LANCEcAMP384KitUser.pdf].
Effectiveness of compounds was estimated by their ability to reduce the content of intracellular cAMP induced by serotonin.

[2] = system: prepulse inhibition of startle in mice; assay: Prepulse inhibition of the startle response in mice (Apomorphine-induced disturbance); type: in vivo, mouse; details: SHK mice, 1 mg/kg, 60 min before test
Protocol: Antipsychotic activity of compounds of the general formula 1 in “Prepulse inhibition of the startle response in mice” test. Mice of SHK line weighing about 24-30 g were used in the test. Experiments were carried out during light period of animal's diurnal. Apomorphine hydrochloride and Haloperidol were received from Sigma Chemicals Company, (USA). Apomorphine hydrochloride was dissolved in 0.1% solution of ascorbic acid prepared with sterilized water; it was administered subcutaneously 15 minutes before the test. Haloperidol was dissolved in sterilized water using emulsifier Twin 80, it was administered intraperitoneally 60 minutes before the test. The compound 1.1(1) was dissolved in sterilized water, it was introduced subcutaneously 60 minutes before the test. Injection volume was 10 ml/kg. Solution of ascorbic acid prepared with sterilized water and Twin 80 were injected to control group of animals.
The test instrument consisted of a chamber made of transparent plexiglass (manufacturer—Columbia Instruments Company, USA) and placed on a platform the latter was lodged inside the sound insulating chamber. High frequency sound column transmitting acoustic stimulus was located 2 cm away from the platform. […] Inhibition of the startle in reply to prepulse-plus-pulse stimulus was calculated in percentage towards amplitude of startle in response to isolated pulse stimulus. […]

[3] = system: food consumption (appetite) in rats; assay: Appetite control test in food-deprived rats; type: in vivo, rat; details: Vistar rats, 16 h food deprivation, 10 mg/kg intraperitoneally 60 min before test (FIG. 2 legend: 1 mg/kg)
Protocol: Appetite control test. Male rats of Vistar line weighing 230-360 g were housed in standard home cages with water and food available with the exception of short periods of food deprivation (16 hs) just before the Appetite test. The Appetite test was carried out in individual cages with overhead cover made of wire in the niches of which a portion of food granules was inserted. Mass of the granules was examined every 30 minutes for 3 h. On the basis of these measurements food consumption was estimated and stated in grams of food per kilogram of body mass. Placebo and the compound 1.1(1) (dose 10 mg/kg) were injected intraperitoneally 60 minutes before the test. Each experimental group of animals consisted of 10 rats. Compound was dissolved in sterilized water. The injection volume was 10 ml/kg. Intact animals which were not undergone food deprivation, and animals after food deprivation, but injected with sterilized water, were used as control. […]

5-HT6 receptor [4] = biological target: T1, 5-HT6 receptor; assay: Competitive radioligand binding ([3H] Lysergic acid diethylamide) to membranes of HeLa cells expressing recombinant human 5-HT6 receptors
Protocol: Activity determination of serotonin 5-HT6 receptor antagonists of the general formula 1 in the setting of competitive binding to serotonin 5-HT6 receptors.
Screening of the disclosed compounds for their potential ability to interact with serotonin 5-HT6 receptors was carried out by method of radioligand binding. For this purpose membrane species were prepared from expressing recombinant human 5-HT6 receptors HeLa cells by means of their homogenization in glass homogenizer with subsequent separation of plasmatic membranes from cell nucli, mitochondria's and cell wreckages by differential centrifugation. Determination of tested compounds binding with 5-HT6 receptors was carried out according to the method described in [Monsma F J Jr, Shen Y, Ward R P, Hamblin M W and Sibley D R, Cloning and expression of a novel serotonin receptor with high affinity for tricyclic psychotropic drugs. Mol Pharmacol. 43:320-327, 1993]. […] After incubation the samples were filtered in vacuo on glass-microfiber filters G/F (Millipor, USA), filters were washed three times with cold solution of medium and radioactivity was measured by scintillation counter MicroBeta 340 (PerkinElmer, USA). […] Binding of tested compounds to the receptor was determined by their ability to displace the radioligand and expressed in percent of displacement. The percent of displacement was calculated according to the following equation:
[formula] wherein: TA—was overall radioactivity in the presence of radioligand only, CA—was radioactivity in the presence of radioligand and tested compound and NA—was radioactivity in the presence of radioligand and Serotonin (5 μM).

T1 sequence (P50406 whole entry): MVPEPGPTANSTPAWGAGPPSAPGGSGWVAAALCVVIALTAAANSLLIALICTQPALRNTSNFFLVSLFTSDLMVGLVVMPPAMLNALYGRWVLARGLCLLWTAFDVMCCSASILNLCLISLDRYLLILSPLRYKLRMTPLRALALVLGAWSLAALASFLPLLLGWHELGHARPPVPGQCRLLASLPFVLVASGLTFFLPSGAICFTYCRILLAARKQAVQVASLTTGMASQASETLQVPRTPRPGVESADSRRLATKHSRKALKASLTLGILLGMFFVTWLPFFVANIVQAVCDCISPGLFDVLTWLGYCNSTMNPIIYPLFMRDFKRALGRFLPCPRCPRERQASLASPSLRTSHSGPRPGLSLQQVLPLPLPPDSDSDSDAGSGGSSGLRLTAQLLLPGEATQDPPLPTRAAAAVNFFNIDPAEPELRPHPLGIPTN

SMILES	inhibition at 10 µM (5-HT6 receptor [1]) [%]	also measured
Cc1cc(C)n2nc(NCCCN(C)C)c(S(=O)(=O)c3ccccc3)c2n1 [1(10)]	94	–
Cc1cc(C)n2nc(N3CCN(C)CC3)c(S(=O)(=O)c3ccccc3)c2n1 [1(13)]	80	–
CNc1nn2c(-c3ccccc3)cc(C)nc2c1S(=O)(=O)c1ccccc1 [1(2)]	90	–
O=C(CCCN1CCC(O)(c2ccc(Cl)cc2)CC1)c1ccc(F)cc1 [Haloperidol, reference compound]	–	effect on disturbance of prepulse inhibition of startle caused by Apomorphine [2]: prevented disturbance of prepulse inhibition of startle caused by Apomorphine
CNc1nn2c(C)cc(C)nc2c1S(=O)(=O)c1cccnc1 [1(5)]	95	–
Cc1ccc(Nc2nn3c(C)cc(C)nc3c2S(=O)(=O)c2ccc(C)cc2)cc1 [1(14)]	70	–
Cc1cc(C)n2nc(N3CCNCC3)c(S(=O)(=O)c3ccccc3)c2n1 [1(12)]	76	–
Cc1cc(C)n2nc(N(C)C)c(S(=O)(=O)c3cccc(Cl)c3)c2n1 [1.1(8), 2-dimethylamino-5,7-dimethyl-3-(3-chlorophenylsulfonyl)pyrazolo[1,5-a]pyrimidine]	96	–
CNc1nn2c(C)cc(C)nc2c1S(=O)(=O)c1ccncc1 [1(4)]	97	–
CNc1nn2c(C)cc(C)nc2c1S(=O)(=O)c1cccc(Cl)c1 [1.1(7), 2-methylamino-5,7-dimethyl-3-(3-chlorophenylsulfonyl)pyrazolo[1,5-a]pyrimidine]	100	IC50 (5-HT6 receptor [1]): 2 nM
Cc1ccc(S(=O)(=O)c2c(Nc3ccccc3)nn3c(C)c(C)c(C)nc23)cc1 [1(1)]	77	–
Cc1cc(C)n2nc(N3CCN(C(=O)OC(C)(C)C)CC3)c(S(=O)(=O)c3ccccc3)c2n1 [1(11)]	63	–
Cc1cc(C)n2nc(N(C)C)c(S(=O)(=O)c3ccc(F)cc3)c2n1 [1.1(4), 2-dimethylamino-5,7-dimethyl-3-(4-fluorophenylsulfonyl)pyrazolo[1,5-a]pyrimidine]	95	–
CNc1nn2c(C)cc(C)nc2c1S(=O)(=O)c1cccc(F)c1 [1.1(5), 2-methylamino-5,7-dimethyl-3-(3-fluorophenylsulfonyl)pyrazolo[1,5-a]pyrimidine]	97	IC50 (5-HT6 receptor [1]): 5 nM
CNc1nn2c(C)cc(C)nc2c1S(=O)(=O)c1ccc(F)cc1 [1.1(3), 2-methylamino-5,7-dimethyl-3-(4-fluorophenylsulfonyl)pyrazolo[1,5-a]pyrimidine]	99	IC50 (5-HT6 receptor [1]): 6 nM
Cc1cc(C)n2nc(N(C)CCN(C)C)c(S(=O)(=O)c3ccccc3)c2n1 [1(9)]	88	–
Cc1cc(C)n2nc(NCCN(C)C)c(S(=O)(=O)c3ccccc3)c2n1 [1(8)]	91	–
Cc1cc(C)n2nc(N(C)C)c(S(=O)(=O)c3ccccc3)c2n1 [1.1(2), 2-dimethylamino-5,7-dimethyl-3-(phenylsulfonyl)pyrazolo[1,5-a]pyrimidine]	86	IC50 (5-HT6 receptor [1]): 1180 nM
CNc1nn2c(C)cc(C)nc2c1S(=O)(=O)c1ccccc1 [1.1(1), 2-methylamino-5,7-dimethyl-3-(phenylsulfonyl)pyrazolo[1,5-a]pyrimidine]	77	effect on appetite (food consumption) after food deprivation [3]: capable to prevent appetite rising in rats; effect on disturbance of prepulse inhibition of startle caused by Apomorphine [2]: prevented disturbance of prepulse inhibition of startle caused by Apomorphine; IC50 (5-HT6 receptor [1]): 5 nM; IC50 (5-HT6 receptor [4]; 1.5 nM [3H] Lysergic acid diethylamide, 120 min at 37° C., read-out: IC50 in the setting of competitive binding): 0.511 nM; Ki (5-HT6 receptor [4]; 1.5 nM [3H] Lysergic acid diethylamide, 120 min at 37° C., read-out: Ki in the setting of competitive binding): 0.237 nM; activity of serotonin 5-HT6 receptor antagonist (5-HT6 receptor [4]; quantity not specified, differs from Table 4): 4.61 nM
Cc1cc(C)n2nc(N(C)C)c(S(=O)(=O)c3cccc(F)c3)c2n1 [1.1(6), 2-dimethylamino-5,7-dimethyl-3-(3-fluorophenylsulfonyl)pyrazolo[1,5-a]pyrimidine]	97	–
CNc1nn2c(C)cc(C)nc2c1S(=O)(=O)c1ccc(F)c(Cl)c1 [1.1(9)]	97	IC50 (5-HT6 receptor [1]): 4 nM
CCNc1nn2c(C)cc(C)nc2c1S(=O)(=O)c1ccccc1 [1(7)]	104	–
CNc1nn2c(C)cc(-c3ccccc3)nc2c1S(=O)(=O)c1ccccc1 [1(3)]	91	–
CNc1nn2c(C)cc(C)nc2c1S(=O)(=O)c1cccs1 [1(6)]	98	–

Source: patent US8829009B2, “Substituted 2-amino-3-(sulfonyl)pyrazolo[1,5-a]pyrimidines - serotonin 5-HT6 receptor antagonists, method for use thereof” (priority 2008, dated 2014)
